Inhibition in vivo, ED50 and Therapeutic index data for 49 compounds are collected here from ChEMBL document CHEMBL1122653, “Substituted (omega-aminoalkoxy) stilbene derivatives as a new class of anticonvulsants” (1984).

A value given as a limit tells only on which side of the number the result lay.

For assay [1], the system named is Mus musculus. Briefly: Ability to suppress PTZ (pentylenetetrazole ) induced tonic extensor convulsion in mice after oral administration at a dose 50 mg/kg. The format is functional.
Assay [2] concerns Mus musculus. Put plainly: Ability to suppress maximal electroshock induced tonic extensor convulsion in mice after oral administration at 50 mg/kg. The format is functional.
Assay [3] concerns Mus musculus. Put plainly: Ability to suppress PTZ (pentylenetetrazole) induced tonic extensor convulsion in mice after oral administration at a dose 50 mg/kg. The format is functional.
The test system of assay [4] is Mus musculus. Briefly: Ability to suppress MES (maximal electroshock ) induced tonic extensor convulsion in mice after oral administration at a dose 100 mg/kg. The format is functional.
The test system of assay [5] is Mus musculus. Put plainly: Ability to suppress PTZ (pentylenetetrazole) induced tonic extensor convulsion in mice after oral administration at a dose 25 mg/kg. The format is functional.
The subject of assay [6] is Mus musculus. Put plainly: Ability to suppress MES (maximal electroshock) induced tonic extensor convulsion in mice after oral administration at a dose 50 mg/kg. The format is functional.
In assay [7] the test system is Mus musculus. Put plainly: Ability to suppress PTZ (pentylenetetrazole ) induced tonic extensor convulsion in mice after oral administration of the compound. The format is functional.
For assay [8], the system named is Mus musculus. Briefly: Ability to suppress MES (maximal electroshock ) induced tonic extensor convulsion in mice after oral administration of the compound. The format is functional.
For assay [9], the system named is Mus musculus. Put plainly: Ability to suppress PTZ (pentylenetetrazole) induced tonic extensor convulsion in mice after oral administration of the compound. The format is functional.
The species entered for assay [10] is Rattus norvegicus. Briefly: Muscle-relaxant action in vertical screen method. The format is functional.
For assay [11], the species on record is Rattus norvegicus. Briefly: Ability to suppress MES ( maximal electroshock ) induced seizures in male Wistar rats. The format is functional.
Assay [12] is described as follows: Ratio of the dose showing muscle relaxant action in rats and the dose suppressing MES induced seizures in rats. The format is functional.
For assay [13], the species on record is Rattus norvegicus. Put plainly: Ability to suppress PTZ (pentylenetetrazole) induced clonic convulsions seizures in male Wistar rats. The format is functional.
The species entered for assay [14] is Rattus norvegicus. Put plainly: Ratio of the dose showing muscle relaxant action in rats and the dose suppressing MES induced seizures in rats.
The species named for assay [15] is Rattus norvegicus. Put plainly: Ability to suppress MES (maximal electroshock) induced seizures in male Wistar rats. The format is functional.
For assay [16], the species on record is Rattus norvegicus. Put plainly: Ability to suppress PTZ (convulsions seizures in male Wistar rats. The format is functional.
The species named for assay [17] is Rattus norvegicus. Briefly: Muscle-relaxant action in vertical screen method. The format is functional.

`CN(C)CCCCOc1ccccc1/C=C/c1cccc(F)c1`: the inhibition in vivo at 50 mg/kg with Mus musculus [1] stood at 12.5%.
For `CC1CCCN(CCCCOc2ccccc2/C=C/c2ccccc2)C1` (stereo not given), the inhibition in vivo at 50 mg/kg in the assay on Mus musculus [2] was 12.5%.
With `CN(C)CCCOc1ccccc1/C=C/c1ccccc1`, the figures for the inhibition in vivo at 50 mg/kg with Mus musculus [2] and in the assay with Mus musculus [3] were 14.2% and 87.5%, respectively.
As for `CCCOC1CCCN(CCCCOc2ccccc2/C=C/c2ccccc2)C1` (stereo not given), the inhibition in vivo at 50 mg/kg in the assay on Mus musculus [2] is 0%.
The same measure, in the same setting: in the case of `CN1CCN(CCCCOc2ccccc2/C=C/c2ccccc2F)CC1` it was 0%.
In the assay on Mus musculus [1], `CN(C)CCCCOc1ccccc1/C=C/c1ccccc1F` gave an inhibition in vivo at 50 mg/kg of 17%.
On to `CN(C)CCCCCOc1ccccc1/C=C/c1ccccc1`, for which the inhibition in vivo at 100 mg/kg with Mus musculus [4] came out at 81%. This compound had an inhibition in vivo at 25 mg/kg with Mus musculus [5] of 75%.
In turn, `OCC1CCCN(CCCCOc2ccccc2/C=C/c2ccccc2)C1` (stereo not given) showed an inhibition in vivo at 50 mg/kg in the assay on Mus musculus [2] of 12.5%.
Compound `CN1CCN(CCCCOc2ccccc2/C=C/c2ccccc2)CC1.Cl.Cl` displayed an inhibition in vivo at 50 mg/kg in the assay with Mus musculus [6] of 0%. The ED50 in the assay with Mus musculus [7] was found to be 11.1 mg/kg; in the assay with Mus musculus [8], 31.1 mg/kg.
Consider `CCOC1CCCN(CCCCOc2ccccc2/C=C/c2ccccc2)C1.Cl` (stereo not given), for which the ED50 in the assay on Mus musculus [9] was 9.8 mg/kg; with Mus musculus [8] it was 17.5 mg/kg.
The matching figures for `CC(=O)OC1CCCN(CCCCOc2ccccc2/C=C/c2ccccc2)C1.Cl` (stereo not given): 7.9 mg/kg and 18.7 mg/kg.
As for `OC1CCN(CCCCOc2ccccc2/C=C/c2ccccc2)CC1`, the inhibition in vivo at 50 mg/kg with Mus musculus [2] came to 0%; with Mus musculus [1], 50%.
Take `COC1CCCN(CCCCOc2ccccc2/C=C/c2ccccc2)C1.Cl` (stereo not given): the ED50 in the assay with Mus musculus [9] was determined as 9.3 mg/kg; with Mus musculus [8], 12.6 mg/kg.
As for `COc1cccc(OCCCCN2CCN(C)CC2)c1/C=C/c1ccccc1.Cl.Cl`, the inhibition in vivo at 50 mg/kg in the assay with Mus musculus [2] amounted to 42.9%. It took a dose of 50 mg/kg to reach the 50% effect level in the assay on Mus musculus [7] (ED50).
As to `CN1CCN(CCCCOc2ccccc2/C=C/c2ccc(F)cc2)CC1.Cl.Cl`, the ED50 in the assay on Mus musculus [7] worked out at 17.7 mg/kg; with Mus musculus [8], 39 mg/kg.
In the case of `Cl.OC1CCCN(CCCCOc2ccccc2/C=C/c2ccccc2)C1` (stereo not given), the ED50 was over 300 mg/kg in the assay filed under Rattus norvegicus [10], 12.5 mg/kg in the assay filed under Rattus norvegicus [11], 20 mg/kg in the assay with Mus musculus [8] and 248 mg/kg in the assay filed under Rattus norvegicus [13]. Moreover, the Therapeutic index in assay [12] is listed as over 24.
In the case of `Cl.OC1CCCN(CCCCOc2ccccc2/C=C/c2ccc(F)cc2)C1` (stereo not given), the results for the ED50 in the assay on Mus musculus [9] and in the assay with Mus musculus [8] were 8.8 mg/kg and 21.9 mg/kg, respectively.
Take `Cl.OC1CCCN(CCCCOc2ccccc2/C=C/c2cccc(F)c2)C1` (stereo not given): it took a dose of 38 mg/kg to reach the 50% effect level with Mus musculus [8] (ED50).
`O=C(O)C1CCCN(CCCCOc2ccccc2/C=C/c2ccccc2)C1` (stereo not given) displayed an inhibition in vivo at 50 mg/kg with Mus musculus [2] of 12.5%.
Same read-out and setting: the same measure for `COC(=O)C1CCCN(CCCCOc2ccccc2/C=C/c2ccccc2)C1` (stereo not given): 0%.
`C(=C\c1ccccc1OCCCCN1CCOCC1)/c1ccccc1`: the inhibition in vivo at 50 mg/kg in the assay with Mus musculus [2] turned out to be 14.3%; with Mus musculus [1], 87.5%.
Compound `CNCCCCOc1ccccc1/C=C/c1ccccc1.Cl` displayed an ED50 in the assay on Mus musculus [8] of 118 mg/kg.
`Cc1ccccc1/C=C/c1ccccc1OCCCCN(C)C` displayed an inhibition in vivo at 50 mg/kg in the assay with Mus musculus [1] of 16.7%.
For the compound `COc1ccccc1/C=C/c1ccccc1OCCCCN(C)C`, the inhibition in vivo at 50 mg/kg in the assay on Mus musculus [2] worked out at 0%; in the assay with Mus musculus [1], 62.5%.
Regarding `C(=C\c1ccccc1OCCCCN1CCCCC1)/c1ccccc1`, the inhibition in vivo at 50 mg/kg in the assay on Mus musculus [2] came out at 42.9%; in the assay with Mus musculus [3] it was 100%.
In the assay on Mus musculus [2], `CCCN(CCC)CCCCOc1ccccc1/C=C/c1ccccc1` gave an inhibition in vivo at 50 mg/kg of 0%.
Turning to `C(=C\c1ccccc1OCCCCN1CCCC1)/c1ccccc1`, the inhibition in vivo at 50 mg/kg in the assay with Mus musculus [2] was found to be 42.9%; with Mus musculus [1] it was 87.5%.
For `CCN(CC)CCCCOc1ccccc1/C=C/c1ccccc1.Cl`, the values for the ED50 in the assay with Mus musculus [7] and in the assay on Mus musculus [8] were 11.5 mg/kg and 82 mg/kg, respectively.
Regarding `CN(C)CCCCOc1ccccc1/C=C/c1ccc(F)cc1.Cl`, the inhibition in vivo at 100 mg/kg in the assay with Mus musculus [4] amounted to 14.3%. Further, in the assay on Mus musculus [7], the 50% effect level (ED50) was put at a dose of 15.4 mg/kg.
Consider `COC1CCCN(CCCCOc2ccccc2/C=C/c2ccc(F)cc2)C1` (stereo not given), for which 50 mg/kg produced 12.5% inhibition in vivo in the assay with Mus musculus [2].
The same measure, in the same setting: the same measure for `CN(C)CCN(C)CCCCOc1ccccc1/C=C/c1ccccc1`: 0%.
For the compound `CC(=O)N1CCN(CCCCOc2ccccc2/C=C/c2ccccc2)CC1`, the inhibition in vivo at 50 mg/kg is 0% in the assay on Mus musculus [2] and 12.5% in the assay on Mus musculus [1].
In the same order, the values of `C(=C\c1ccccc1OCCCCN1CCNCC1)/c1ccccc1` are 0% and 0%.
Take `CN(C)CCCCOc1ccc(/C=C/c2ccccc2)cc1`: the inhibition in vivo at 50 mg/kg with Mus musculus [2] stood at 12.5%.
In the case of `CN(C)CCOc1ccccc1/C=C/c1ccccc1`, the inhibition in vivo at 50 mg/kg with Mus musculus [3] was determined as 75%.
For the compound `CCCN1CCN(CCCCOc2ccccc2/C=C/c2ccccc2)CC1`, the inhibition in vivo at 50 mg/kg in the assay with Mus musculus [2] amounted to 42.9%; in the assay with Mus musculus [1], 87.5%.
As to `CN(C)CCCCOc1cccc(/C=C/c2ccccc2)c1`, testing at 50 mg/kg with Mus musculus [2] gave an inhibition in vivo of 0%.
The same measure, in the same setting: in the case of `CCN1CCN(CCCCOc2ccccc2/C=C/c2ccccc2)CC1` it was 33.3%.
As for `CN(C)CCCCOc1ccccc1/C=C/c1cccc(Cl)c1`, the inhibition in vivo at 50 mg/kg was 14.3% in the assay with Mus musculus [2] and 23.9% with Mus musculus [1].
In the assay on Mus musculus [2], `NC(=O)C1CCCN(CCCCOc2ccccc2/C=C/c2ccccc2)C1` (stereo not given) registered an inhibition in vivo at 50 mg/kg of 0%.
Take `CN(C)CCCCOc1ccccc1/C=C/c1ccccc1Cl`: the inhibition in vivo at 50 mg/kg turned out to be 14.3% in the assay on Mus musculus [2] and 50% in the assay on Mus musculus [1].
In the same order, the values of `CN(C)CCCCOc1ccccc1/C=C/c1ccc(Cl)cc1` are 0% and 62.5%.
As for `CN1CCN(CCCCOc2ccccc2/C=C/c2ccc(Cl)c(Cl)c2)CC1`, the inhibition in vivo at 50 mg/kg in the assay with Mus musculus [2] and in the assay with Mus musculus [1] was 0% in each case.
With `CN1CCN(CCCCOc2ccccc2/C=C/c2cccc(Cl)c2)CC1`, the inhibition in vivo at 50 mg/kg was 0% with Mus musculus [2] and 50% in the assay with Mus musculus [1].
In turn, `OC1CCCN(CCCCOc2ccc(Cl)cc2/C=C/c2ccccc2)C1` (stereo not given) gave an inhibition in vivo at 50 mg/kg with Mus musculus [2] of 12.5%.
`COc1cccc(/C=C/c2ccccc2)c1OCCCCN(C)C` gave an inhibition in vivo at 50 mg/kg with Mus musculus [2] of 57.1%. Besides, the ED50 with Mus musculus [7] turned out to be 21.6 mg/kg.
As for `OC1CCCN(CCCCOc2ccccc2/C=C/c2cccc(Cl)c2)C1` (stereo not given), in the assay on Mus musculus [2], the inhibition in vivo at 50 mg/kg turned out to be 12.5%.
Regarding `NC(=O)N1c2ccccc2C=Cc2ccccc21` [CARBAMAZEPINE], the figures for the ED50 in the assay listed under Rattus norvegicus [10], in the assay listed under Rattus norvegicus [15] and in the assay filed under Rattus norvegicus [13] were 120 mg/kg, 32 mg/kg and 300 mg/kg, respectively. Moreover, in the assay filed under Rattus norvegicus [14], the Therapeutic index stood at 3.75.
With `O=C1NC(=O)C(c2ccccc2)(c2ccccc2)N1` [PHENYTOIN], the ED50 in the assay listed under Rattus norvegicus [11] was 40 mg/kg; in the assay listed under Rattus norvegicus [16] it was 250 mg/kg; in the assay listed under Rattus norvegicus [17], over 250 mg/kg. In addition, in assay [12], the Therapeutic index was over 6.25.
